Active and inactive are the calls of the source. No cut-off for these calls is given here.
Legend:
[1] = system: Hepatitis C virus; assay: Inhibition of HCV 1b replicon translation in human HuH7 cells transfected with BM4-5 FEO HCV replicon RNA after 48 hrs by luciferase reporter assay; assay type: functional, organism-based, Hepacivirus hominis; conditions: genotype 1b, Huh-7, 48 h
[2] = target: Internal ribosome entry site (IRES); assay: Binding affinity to HCV 2AP54-labelled IRES subdomain 2a RNA C58A mutant in presence of 1 mM Mg2+ by FRET assay; assay type: nucleic-acid assay, Hepacivirus hominis
[3] = system: Internal ribosome entry site (IRES); assay: Binding affinity to HCV 2AP54-labelled IRES subdomain 2a RNA in presence of Mg2+ by FRET assay; assay type: nucleic-acid assay; conditions: Hepacivirus hominis
[4] = target: Internal ribosome entry site (IRES); assay: Binding affinity to HCV 2AP54-labelled IRES subdomain 2a RNA in presence of 1 mM Mg2+ by FRET assay; assay type: nucleic-acid assay, Hepacivirus hominis
[5] = system: Hepacivirus hominis; assay: Inhibition of HCV NS5B RNA dependent RNA polymerase after 60 mins
[6] = system: Hepatitis C virus; assay: Inhibition of HCV 1b replicon translation in human HuH7 cells transfected with BM4-5 FEO HCV replicon RNA A57U mutant by luciferase reporter assay relaitv to wild type; assay type: functional, Hepacivirus hominis, genotype 1b, Huh-7
[7] = target: Internal ribosome entry site (IRES); assay: Binding affinity to HCV 2AP54-labelled IRES subdomain 2a RNA by mass spectrometry; assay type: nucleic-acid assay, Hepacivirus hominis
[8] = system: Internal ribosome entry site (IRES); assay: Binding affinity to HCV 2AP54-labelled IRES subdomain 2a RNA in presence of Mg2+ by FRET assay in presence of eukaryotic tRNA; assay type: nucleic-acid assay; conditions: Hepacivirus hominis
[9] = system: Hepatitis C virus; assay: Inhibition of HCV 1b replicon translation in human HuH7 cells transfected with BM4-5 FEO HCV replicon RNA after 4 hrs by luciferase reporter assay; assay type: functional, organism-based, Hepacivirus hominis; conditions: genotype 1b, Huh-7, 4 h
[10] = target: Internal ribosome entry site (IRES); assay: Binding affinity to HCV 2AP54-labelled IRES subdomain 2a RNA A54G mutant in presence of 1 mM Mg2+ by FRET assay; assay type: nucleic-acid assay, Hepacivirus hominis
[11] = target: Internal ribosome entry site (IRES); assay: Binding affinity to HCV 2AP54-labelled IRES subdomain 2a RNA in presence of 0.3 mM Mg2+ by FRET assay; assay type: nucleic-acid assay, Hepacivirus hominis
[12] = system: Internal ribosome entry site (IRES); assay: Binding affinity to HCV Cy3/Cy5-labelled IRES subdomain 2a RNA by FRET assay; assay type: nucleic-acid assay; conditions: Hepacivirus hominis
[13] = target: Internal ribosome entry site (IRES); assay: Binding affinity to HCV 2AP54-labelled IRES subdomain 2a RNA A57U mutant in presence of 1 mM Mg2+ by FRET assay; assay type: nucleic-acid assay, Hepacivirus hominis
[14] = target: Internal ribosome entry site (IRES); assay: Binding affinity to HCV 2AP54-labelled IRES subdomain 2a RNA C55U mutant in presence of 1 mM Mg2+ by FRET assay; assay type: nucleic-acid assay, Hepacivirus hominis
[15] = target: Internal ribosome entry site (IRES); assay: Binding affinity to HCV 2AP54-labelled IRES subdomain 2a RNA U56G/A57U mutant in presence of 1 mM Mg2+ by FRET assay; assay type: nucleic-acid assay, Hepacivirus hominis
[16] = system: Hepatitis C virus; assay: Inhibition of HCV 1b replicon translation in human HuH7 cells transfected with BM4-5 FEO HCV replicon RNA after 8 hrs by luciferase reporter assay; assay type: functional, organism-based, Hepacivirus hominis; conditions: genotype 1b, Huh-7, 8 h
[17] = Cytotoxicity against human HuH7 cells at 0.25-25 uM after 48 hrs by colorimetric viability assay; assay type: cell-based; conditions: huh-7, 48 h
[18] = target: Internal ribosome entry site (IRES); assay: Binding affinity to HCV 2AP54-labelled IRES subdomain 2a RNA C55A mutant in presence of 1 mM Mg2+ by FRET assay; assay type: nucleic-acid assay, Hepacivirus hominis
[19] = system: Hepacivirus hominis; assay: Inhibition of HCV NS5B RNA dependent RNA polymerase after 24 mins

| Compound | IC50 [1] [µM] | EC50 [2] [µM] | Activity [3] | EC50 [4] [µM] | inhibition [5] | inhibition (INH) [6] [%] | Kd [7] [µM] | Activity [8] | IC50 [9] [µM] | EC50 [10] [µM] | EC50 [11] [µM] | Activity [12] | EC50 [13] [µM] | EC50 [14] [µM] | EC50 [15] [µM] | IC50 [16] [µM] | Activity [17] | EC50 [18] [µM] | inhibition [19] |
| --- | --- | --- | --- | --- | --- | --- | --- | --- | --- | --- | --- | --- | --- | --- | --- | --- | --- | --- | --- |
| CN(C)CC1COc2ccc3nc4n(c3c2C1)CC(CN(C)C)CN4 (stereo not given) | 2 | 0.76 | Dose-dependent effect | 0.6 | Active | 15 | 0.72 | Active | 4 | 0.49 | 0.26 | inactive | 4.2 | 0.32 | 4.1 | 9.5 | Toxic | 0.65 | Active |
| CN(C)CC(CO)Cn1c(N)nc2ccc3c(c21)CC(CO)CO3 (stereo not given) |  |  |  | 90 |  |  |  |  |  |  |  |  |  |  |  |  |  |  |  |
